The values that follow come from ChEMBL document CHEMBL4177646, “Discovery of novel nitroimidazole enols as Pseudomonas aeruginosa DNA cleavage agents” (Bioorg Med Chem, 2017).

Molecules are shown by their SMILES. ≈ marks a conversion by molar mass, not a printed value.

Assay type in all cases: functional
Experiment [1] concerns Escherichia coli. Description: Antibacterial activity against Escherichia coli ATCC 25922 after 24 hrs by micro broth dilution method. The conditions noted are these: ATCC 25922, 24 h. For orientation: In broth dilution the organism is exposed to a series of concentrations in liquid medium.
The test system of experiment [2] is Staphylococcus aureus. Briefly: Antibacterial activity against Staphylococcus aureus ATCC 25923 after 24 hrs by micro broth dilution method. The settings on record: ATCC 25923, 24 h.
For experiment [3], the system named is Staphylococcus aureus. Briefly: Antibacterial activity against drug-resistant Staphylococcus aureus after 24 hrs by micro broth dilution method.
Experiment [4] deals with Candida albicans. Description: Antifungal activity against Candida albicans ATCC 90023 after 24 hrs by micro broth dilution method. The conditions noted are these: ATCC 90023, 24 h.
A further experiment relates to Candida tropicalis. Description: Antifungal activity against Candida tropicalis after 24 hrs by micro broth dilution method.
Experiment [5] deals with Pseudomonas aeruginosa. Briefly: Antibacterial activity against Pseudomonas aeruginosa ATCC 27853 after 24 hrs by micro broth dilution method. The settings on record: ATCC 27853, 24 h.
Experiment [6] has as its system Pseudomonas aeruginosa. Description: Antibacterial activity against drug-resistant Pseudomonas aeruginosa after 24 hrs by micro broth dilution method.
Experiment [7] relates to Staphylococcus aureus. Briefly: Antibacterial activity against methicillin-resistant Staphylococcus aureus N315 after 24 hrs by micro broth dilution method. The conditions noted are these: N315, 24 h.
In experiment [8] the test system is Candida albicans. Description: Antifungal activity against drug-resistant Candida albicans after 24 hrs by micro broth dilution method.
For experiment [9], the system named is Staphylococcus aureus. Description: Antibacterial activity against Staphylococcus aureus ATCC 29213 after 24 hrs by micro broth dilution method. The conditions noted are these: ATCC 29213, 24 h.
Experiment [10] has as its system Escherichia coli. Description: Antibacterial activity against drug-resistant Escherichia coli after 24 hrs by micro broth dilution method.
Experiment [11] concerns Pseudomonas aeruginosa. Briefly: Potency index, ratio of norfloxacin MIC to compound MIC for Pseudomonas aeruginosa ATCC 27853.

`CCn1c2ccccc2c2cc(/C=C(\C(C)O)n3c([N+](=O)[O-])cnc3C)ccc21` (stereo not drawn): the MIC (usually the lowest concentration that inhibits growth of the organism) is 1310 µM (≈ 511 µg/mL) against Escherichia coli [1]; 1310 µM (≈ 511 µg/mL) in the experiment on Staphylococcus aureus [2]; 1310 µM (≈ 511 µg/mL) against Staphylococcus aureus [3]; 512 µg/mL (≈ 1310 µM) with Candida albicans [4]; 256 µg/mL (≈ 656 µM) against Candida tropicalis; 1310 µM (≈ 511 µg/mL) against Pseudomonas aeruginosa [5]. The MIC in the experiment on Pseudomonas aeruginosa [6] is 1310 µM (≈ 511 µg/mL); against Staphylococcus aureus [7] it was 1310 µM (≈ 511 µg/mL); with Candida albicans [8] it was 512 µg/mL (≈ 1310 µM); against Staphylococcus aureus [9], 660 µM (≈ 258 µg/mL); with Escherichia coli [10], 1310 µM (≈ 511 µg/mL).

On to `Cc1ncc([N+](=O)[O-])n1CCO` [METRONIDAZOLE], for which the MIC in the experiment with Escherichia coli [1], in the experiment with Staphylococcus aureus [2], with Staphylococcus aureus [3], in the experiment on Pseudomonas aeruginosa [5], against Pseudomonas aeruginosa [6] and in the experiment on Staphylococcus aureus [7] was 2970 µM (≈ 508 µg/mL) in each case. Also, the MIC against Staphylococcus aureus [9] and against Escherichia coli [10] was 2970 µM (≈ 508 µg/mL) each time.

As to `CCn1c2ccccc2c2cc(/C=C(\C(C)=O)n3c([N+](=O)[O-])cnc3C)ccc21`, the MIC with Escherichia coli [1] was 1640 µM (≈ 637 µg/mL); against Staphylococcus aureus [2] it was 820 µM (≈ 319 µg/mL); in the experiment with Staphylococcus aureus [3], 820 µM (≈ 319 µg/mL); with Candida albicans [4], 256 µg/mL (≈ 659 µM); in the experiment with Candida tropicalis it was 256 µg/mL (≈ 659 µM); against Pseudomonas aeruginosa [5], 1640 µM (≈ 637 µg/mL). The MIC in the experiment with Pseudomonas aeruginosa [6] was found to be 1640 µM (≈ 637 µg/mL); in the experiment with Staphylococcus aureus [7] it was 1640 µM (≈ 637 µg/mL); in the experiment with Candida albicans [8] it was 512 µg/mL (≈ 1320 µM); in the experiment on Staphylococcus aureus [9] it was 1640 µM (≈ 637 µg/mL); against Escherichia coli [10], 1640 µM (≈ 637 µg/mL).

On to `OC(Cn1cncn1)(Cn1cncn1)c1ccc(F)cc1F` [FLUCONAZOLE], for which the minimal inhibitory concentration (MIC) worked out at 8 µg/mL (≈ 26.1 µM) against Candida albicans [4], 256 µg/mL (≈ 836 µM) against Candida tropicalis and 8 µg/mL (≈ 26.1 µM) against Candida albicans [8].

For the compound `CC(=O)/C(=C\c1ccccc1)n1c([N+](=O)[O-])cnc1C`, the MIC came to 230 µM (≈ 62.4 µg/mL) against Escherichia coli [1]; 470 µM (≈ 127 µg/mL) against Staphylococcus aureus [2]; 940 µM (≈ 255 µg/mL) against Staphylococcus aureus [3]; 32 µg/mL (≈ 118 µM) in the experiment with Candida albicans [4]; 128 µg/mL (≈ 472 µM) in the experiment with Candida tropicalis; 470 µM (≈ 127 µg/mL) against Pseudomonas aeruginosa [5]. Moreover, the minimal inhibitory concentration (MIC) in the experiment with Pseudomonas aeruginosa [6] turned out to be 470 µM (≈ 127 µg/mL); with Staphylococcus aureus [7], 1880 µM (≈ 510 µg/mL); against Candida albicans [8], 256 µg/mL (≈ 944 µM); against Staphylococcus aureus [9], 940 µM (≈ 255 µg/mL); with Escherichia coli [10] it was 940 µM (≈ 255 µg/mL). Moreover, in the experiment on Pseudomonas aeruginosa [11], the Ratio is recorded as 4 - 16.

`CC(=O)/C(=C\c1ccc(C)cc1)n1c([N+](=O)[O-])cnc1C`: the MIC came to 56 µM (≈ 16 µg/mL) in the experiment on Escherichia coli [1]; 900 µM (≈ 257 µg/mL) with Staphylococcus aureus [2]; 220 µM (≈ 62.8 µg/mL) against Staphylococcus aureus [3]; 256 µg/mL (≈ 897 µM) in the experiment with Candida albicans [4]; 256 µg/mL (≈ 897 µM) against Candida tropicalis; 450 µM (≈ 128 µg/mL) in the experiment on Pseudomonas aeruginosa [5]. The MIC against Pseudomonas aeruginosa [6] turned out to be 1790 µM (≈ 511 µg/mL); with Staphylococcus aureus [7], 1790 µM (≈ 511 µg/mL); in the experiment with Candida albicans [8], 512 µg/mL (≈ 1790 µM); with Staphylococcus aureus [9], 450 µM (≈ 128 µg/mL); in the experiment on Escherichia coli [10], 900 µM (≈ 257 µg/mL). The Ratio in the experiment with Pseudomonas aeruginosa [11] is recorded as 4 - 16.

Turning to `Cc1ncc([N+](=O)[O-])n1/C(=C/c1c[nH]c2ccccc12)C(C)O` (stereo not drawn), the MIC against Escherichia coli [1] was 410 µM (≈ 128 µg/mL); against Staphylococcus aureus [2] it was 410 µM (≈ 128 µg/mL); with Staphylococcus aureus [3], 1630 µM (≈ 509 µg/mL); with Candida albicans [4] it was 128 µg/mL (≈ 410 µM); against Candida tropicalis, 256 µg/mL (≈ 820 µM); against Pseudomonas aeruginosa [5], 410 µM (≈ 128 µg/mL). Besides, the MIC in the experiment with Pseudomonas aeruginosa [6] was determined as 810 µM (≈ 253 µg/mL); against Staphylococcus aureus [7], 810 µM (≈ 253 µg/mL); in the experiment with Candida albicans [8], 512 µg/mL (≈ 1640 µM); in the experiment with Staphylococcus aureus [9], 810 µM (≈ 253 µg/mL); against Escherichia coli [10], 810 µM (≈ 253 µg/mL). The Ratio with Pseudomonas aeruginosa [11] is listed as 4 - 16.

For the compound `COc1cc(/C=C(\C(C)=O)n2c([N+](=O)[O-])cnc2C)ccc1O`, the MIC with Escherichia coli [1] came out at 100 µM (≈ 31.7 µg/mL); in the experiment on Staphylococcus aureus [2], 400 µM (≈ 127 µg/mL); with Staphylococcus aureus [3], 1600 µM (≈ 508 µg/mL); in the experiment on Candida albicans [4], 128 µg/mL (≈ 403 µM); with Candida tropicalis, 256 µg/mL (≈ 807 µM); in the experiment with Pseudomonas aeruginosa [5], 400 µM (≈ 127 µg/mL). Besides, the MIC in the experiment on Pseudomonas aeruginosa [6] was 800 µM (≈ 254 µg/mL); against Staphylococcus aureus [7], 1600 µM (≈ 508 µg/mL); against Candida albicans [8], 256 µg/mL (≈ 807 µM); with Staphylococcus aureus [9] it was 1600 µM (≈ 508 µg/mL); against Escherichia coli [10] it was 800 µM (≈ 254 µg/mL). The Ratio in the experiment on Pseudomonas aeruginosa [11] is 4 - 16.

`Cc1ncc([N+](=O)[O-])n1/C(=C/c1ccc(Cl)cc1Cl)C(C)O` (stereo not drawn): the MIC stood at 1500 µM (≈ 513 µg/mL) with Escherichia coli [1]; 1500 µM (≈ 513 µg/mL) in the experiment with Staphylococcus aureus [2]; 1500 µM (≈ 513 µg/mL) in the experiment with Staphylococcus aureus [3]; 64 µg/mL (≈ 187 µM) in the experiment on Candida albicans [4]; 256 µg/mL (≈ 748 µM) against Candida tropicalis; 750 µM (≈ 257 µg/mL) against Pseudomonas aeruginosa [5]. Besides, the minimal inhibitory concentration (MIC) in the experiment with Pseudomonas aeruginosa [6] worked out at 1500 µM (≈ 513 µg/mL); against Staphylococcus aureus [7], 1500 µM (≈ 513 µg/mL); against Candida albicans [8], 512 µg/mL (≈ 1500 µM); against Staphylococcus aureus [9] it was 1500 µM (≈ 513 µg/mL); with Escherichia coli [10], 1500 µM (≈ 513 µg/mL).

`CC(=O)/C(=C\c1ccccc1Cl)n1c([N+](=O)[O-])cnc1C`: the minimal inhibitory concentration (MIC) against Escherichia coli [1] came out at 410 µM (≈ 125 µg/mL); in the experiment with Staphylococcus aureus [2] it was 820 µM (≈ 251 µg/mL); in the experiment on Staphylococcus aureus [3], 1640 µM (≈ 501 µg/mL); in the experiment with Candida albicans [4], 32 µg/mL (≈ 105 µM); in the experiment on Candida tropicalis it was 64 µg/mL (≈ 209 µM); with Pseudomonas aeruginosa [5], 830 µM (≈ 254 µg/mL). Further, the MIC against Pseudomonas aeruginosa [6] turned out to be 830 µM (≈ 254 µg/mL); with Staphylococcus aureus [7], 1640 µM (≈ 501 µg/mL); with Candida albicans [8] it was 512 µg/mL (≈ 1670 µM); in the experiment with Staphylococcus aureus [9], 820 µM (≈ 251 µg/mL); against Escherichia coli [10] it was 1640 µM (≈ 501 µg/mL).
